Laboratory results taken from patent publication US7598072B2 (priority 2003, dated 2009).

What was measured:
[1] = tested on: RCASBP(A)-EGFP (ASLV-A) in 293(TVA800) cells; type: cell-based, avian sarcoma and leukosis virus
[2] = tested on: RCASBP(A)-EGFP (ASLV-A) in 293(TVA950) cells; type: cell-based, avian sarcoma and leukosis virus
[3] = 30 mM NH4Cl for 10 hours, added at 20 minutes or later after initiating infection
[4] = 30 mM NH4Cl for 10 hours, added at time of initiating infection or 10 minutes later
[5] = 6 hour block with 30 mM NH4Cl, QPCR
[6] = 6 hour block with 30 mM NH4Cl, flow cytometry
[7] = 15 mM MβCD, 15 minutes, no NH4Cl

Row | Molecule | effect upon viral infectivity (QPCR) [1, 3] | effect on infection (QPCR of reverse-transcribed DNA) [1, 4] | viral infection during the period of inhibitor treatment ([1]; 30 mM NH4Cl, 6 hours) | level of infection (late viral DNA products) after NH4Cl release, relative to untreated cells [1, 5] | efficiency of infection (EGFP-positive cells) relative to untreated cells [1, 6] [%] | infectivity on increasing time of NH4Cl treatment to 12 hours ([1]; 12 hours NH4Cl, data not shown) | effect upon viral infectivity (QPCR) [2, 3] | effect on infection (QPCR of reverse-transcribed DNA) [2, 4] | viral infection during the period of inhibitor treatment ([2]; 30 mM NH4Cl, 6 hours) | decrease in viral infectivity ([2]; 6 hour 30 mM NH4Cl, irrespective of whether cyclodextrin had been added) | number of viral DNA products after NH4Cl release, relative to untreated cells [2, 5] [%] | efficiency of infection (EGFP-positive cells) relative to untreated cells [2, 6] [%] | infectivity on increasing time of NH4Cl treatment to 12 hours ([2]; 12 hours NH4Cl, data not shown) | loss of infectivity ([1]; 15 mM MβCD 15 minutes combined with 6 hour 30 mM NH4Cl block at time of initiating infection) [%] | effect of cyclodextrin treatment by itself on viral infectivity [1, 7] | effect of cyclodextrin treatment by itself on viral infectivity [2, 7]
1 | Cl.N [NH4Cl, ammonium chloride] | greatly reduced effect | complete block | completely arrested | approximately 60% | 85 | did not affect | greatly reduced effect | complete block | completely arrested | approximately 80% | 10 | 20 | further decrease |  |  | 
2 | methyl-β-cyclodextrin [MβCD] |  |  |  |  |  |  |  |  |  |  |  |  |  | 50 | only a minor effect | only a minor effect
